From US12600931B2, “Microfluidic cell culture plate for air-liquid interface and 3D cultured tissue applications” (priority 2020, dated 2026)
“Also recorded” adds a separate entry of the source. Structures can show the parent of a compound that is named as a salt. Where two headings read alike, the source gives them in different places.

What was measured:
A/WSN/33 strain of IAV [1] = type: cell-based, influenza A virus
A/WSN/33 strain of IAV [2] = type: cell-based, influenza A virus; remark: listed apart in the source
A/Hong Kong/8/68 H3N2 [3] = type: cell-based, influenza A virus
A/Hong Kong/8/68 H3N2 [4] = type: cell-based, influenza A virus; remark: listed apart in the source
HCoV-NL63 = type: cell-based; details: 20 μM CM vs untreated/vehicle, 48 and 96 h p.i., particularly MOI=0.005, qualitative, scatter limits statistical significance
[5] = test system: HCoV-NL63 in Calu-3 cells; details: reported; cited from earlier work
[6] = test system: IAV in human primary bronchial epithelial cells; details: reported; cited from earlier work

Row | SMILES | effect of oseltamivir on barrier function (TEER) (A/WSN/33 strain of IAV [1]) | viral titers (qRT-PCR) (A/WSN/33 strain of IAV [2]) | influenza replication (viral copies, RT-qPCR) (A/Hong Kong/8/68 H3N2 [3]) | viral copies in apical wash in response to oseltamivir dose (A/Hong Kong/8/68 H3N2 [3]) | virus-induced disruption to barrier function and epithelial tight junction formation (A/Hong Kong/8/68 H3N2 [4]) | viral copy number (RT-qPCR, apical wash) (HCoV-NL63) | viral copy number (RT-qPCR, apical wash) (HCoV-NL63; listed as CM) | infection by HCoV-NL63 in Calu-3 cells [5] | infection by IAV in human primary bronchial epithelial cells [6]
1 | CCC(CC)O[C@@H]1C=C(C(=O)O)C[C@H](N)[C@H]1NC(C)=O [oseltamivir, Oseltamivir carboxylate] | protective effect on barrier function | reduction in viral titers | significantly reduced influenza replication | marked decrease in viral copies; also recorded: reduce viral copies | prevented virus-induced disruption to barrier function and epithelial tight junction formation |  |  |  | 
2 | CN(C)C(=O)COC(=O)Cc1ccc(OC(=O)c2ccc(NC(=N)N)cc2)cc1 [camostat mesylate, Camostat mesylate] |  |  |  |  |  | observed reduction in viral copies | reduces viral copy number | partially block infection | partially block infection
